Data published in ChEMBL document CHEMBL1201861, “Genomics of Drug Sensitity in Cancer screening data, Wellcome Trust Sanger Institute”.

What was measured:
Test in all cases: cells
[1] = system: COLO-829; format: functional, cell-based, Homo sapiens; conditions: colo-829
Description: SANGER: Inhibition of human COLO-829 cell growth in a cell viability assay.

[2] = system: CP66-MEL; format: functional, cell-based, Homo sapiens; conditions: cp66-mel;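 further: growth inhibition of CP66-MEL cells determined in a cell viability assay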
Description: SANGER: Inhibition of human CP66-MEL cell growth in a cell viability assay.

[3] = system: D-502MG; format: functional, cell-based, Homo sapiens; conditions: d-502mg
Description: SANGER: Inhibition of human D-502MG cell growth in a cell viability assay.

[4] = system: DOHH-2; format: functional, cell-based, Homo sapiens; conditions: dohh-2;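 further: growth inhibition of human DOHH-2 cells, read out with a cell viability assay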
Description: SANGER: Inhibition of human DOHH-2 cell growth in a cell viability assay.

[5] = system: EM-2; format: functional, cell-based, Homo sapiens; conditions: em-2;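 further: growth inhibition of EM-2 cells, read out with a cell viability assay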
Description: SANGER: Inhibition of human EM-2 cell growth in a cell viability assay.

[6] = system: ES1; format: functional, cell-based, Homo sapiens; conditions: es1;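 further: growth inhibition of ES1 cells, read out with a cell viability assay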
Description: SANGER: Inhibition of human ES1 cell growth in a cell viability assay.

[7] = system: ES7; format: functional, cell-based, Homo sapiens; conditions: es7;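 further: growth inhibition of cultured human ES7 cells, read out as cell viability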
Description: SANGER: Inhibition of human ES7 cell growth in a cell viability assay.

[8] = system: ES8; format: functional, cell-based, Homo sapiens; conditions: es8;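 further: growth inhibition of human ES8 cells, read out with a cell viability assay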
Description: SANGER: Inhibition of human ES8 cell growth in a cell viability assay.

[9] = system: ETK-1; format: functional, cell-based, Homo sapiens; conditions: etk-1;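 further: growth inhibition of human ETK-1 cells, read out with a cell viability assay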
Description: SANGER: Inhibition of human ETK-1 cell growth in a cell viability assay.

[10] = system: EW-13; format: functional, cell-based, Homo sapiens; conditions: ew-13;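 further: growth inhibition of EW-13 cells, read out with a cell viability assay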
Description: SANGER: Inhibition of human EW-13 cell growth in a cell viability assay.

[11] = system: EW-16; format: functional, cell-based, Homo sapiens; conditions: ew-16;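 further: growth inhibition of human EW-16 cells, read out as cell viability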
Description: SANGER: Inhibition of human EW-16 cell growth in a cell viability assay.

[12] = system: EW-3; format: functional, cell-based, Homo sapiens; conditions: ew-3;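 further: cell viability assay read-out, IC50 reflects inhibition of growth of the EW-3 cells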
Description: SANGER: Inhibition of human EW-3 cell growth in a cell viability assay.

[13] = system: GI-ME-N; format: functional, cell-based, Homo sapiens; conditions: gi-me-n;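 further: growth inhibition of human GI-ME-N cells, read out with a cell viability assay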
Description: SANGER: Inhibition of human GI-ME-N cell growth in a cell viability assay.

[14] = system: GOTO; format: functional, cell-based, Homo sapiens; conditions: goto;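 further: growth inhibition of GOTO cells, read out by a cell viability assay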
Description: SANGER: Inhibition of human GOTO cell growth in a cell viability assay.

[15] = system: GR-ST; format: functional, cell-based, Homo sapiens; conditions: gr-st
Description: SANGER: Inhibition of human GR-ST cell growth in a cell viability assay.

[16] = system: HCC1187; format: functional, cell-based, Homo sapiens; conditions: hcc1187;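 further: growth inhibition of HCC1187 cells, read out with a cell viability assay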
Description: SANGER: Inhibition of human HCC1187 cell growth in a cell viability assay.

[17] = system: HCE-4; format: functional, cell-based, Homo sapiens; conditions: hce-4;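 further: cell viability assay measuring inhibition of growth in the human HCE-4 cell line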
Description: SANGER: Inhibition of human HCE-4 cell growth in a cell viability assay.

[18] = system: HH; format: functional, cell-based, Homo sapiens; conditions: hh
Description: SANGER: Inhibition of human HH cell growth in a cell viability assay.

[19] = system: HL-60; format: functional, cell-based, Homo sapiens; conditions: hl-60;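 further: growth inhibition of human HL-60 cells, read out with a cell viability assay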
Description: SANGER: Inhibition of human HL-60 cell growth in a cell viability assay.

[20] = system: HT-144; format: functional, cell-based, Homo sapiens; conditions: ht-144
Description: SANGER: Inhibition of human HT-144 cell growth in a cell viability assay.

[21] = system: IA-LM; format: functional, cell-based, Homo sapiens; conditions: ia-lm;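 further: cell viability assay measuring growth inhibition of human IA-LM cells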
Description: SANGER: Inhibition of human IA-LM cell growth in a cell viability assay.

[22] = system: IST-SL1; format: functional, cell-based, Homo sapiens; conditions: ist-sl1;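 further: growth inhibition of human IST-SL1 cells, read out with a cell viability assay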
Description: SANGER: Inhibition of human IST-SL1 cell growth in a cell viability assay.

[23] = system: JVM-3; format: functional, cell-based, Homo sapiens; conditions: jvm-3;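 further: growth inhibition of human JVM-3 cells, read out with a cell viability assay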
Description: SANGER: Inhibition of human JVM-3 cell growth in a cell viability assay.

[24] = system: K5; format: functional, cell-based, Homo sapiens; conditions: k5
Description: SANGER: Inhibition of human K5 cell growth in a cell viability assay.

[25] = system: KGN; format: functional, cell-based, Homo sapiens; conditions: kgn;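 further: growth inhibition of KGN cells, read out with a cell viability assay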
Description: SANGER: Inhibition of human KGN cell growth in a cell viability assay.

[26] = target: KM-H2; format: functional, cell-based, Homo sapiens; conditions: km-h2;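 further: growth inhibition of KM-H2 cells, read out by a cell viability assay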
Description: SANGER: Inhibition of human KM-H2 cell growth in a cell viability assay.

[27] = system: LB1047-RCC; format: functional, cell-based, Homo sapiens; conditions: lb1047-rcc;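 further: inhibition of cell growth, determined with a cell viability assay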
Description: SANGER: Inhibition of human LB1047-RCC cell growth in a cell viability assay.

[28] = system: LB2241-RCC; format: functional, cell-based, Homo sapiens; conditions: lb2241-rcc;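 further: cell viability assay measuring how strongly the cultured human renal carcinoma line is prevented from growing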
Description: SANGER: Inhibition of human LB2241-RCC cell growth in a cell viability assay.

[29] = system: ML-2; format: functional, cell-based, Homo sapiens; conditions: ml-2;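 further: growth inhibition of ML-2 cells, measured with a cell viability readout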
Description: SANGER: Inhibition of human ML-2 cell growth in a cell viability assay.

[30] = system: NB6; format: functional, cell-based, Homo sapiens; conditions: nb6;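 further: growth inhibition of NB6 cells, read out by a cell viability assay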
Description: SANGER: Inhibition of human NB6 cell growth in a cell viability assay.

[31] = system: NCI-H1092; format: functional, cell-based, Homo sapiens; conditions: nci-h1092;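 further: cell growth inhibition measured with a cell viability assay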
Description: SANGER: Inhibition of human NCI-H1092 cell growth in a cell viability assay.

[32] = system: NCI-H1648; format: functional, cell-based, Homo sapiens; conditions: nci-h1648;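 further: cell viability assay measuring inhibition of NCI-H1648 cell growth, from the Sanger screening data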
Description: SANGER: Inhibition of human NCI-H1648 cell growth in a cell viability assay.

[33] = system: NCI-H1650; format: functional, cell-based, Homo sapiens; conditions: nci-h1650;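 further: growth inhibition of human NCI-H1650 cells measured by a cell viability assay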
Description: SANGER: Inhibition of human NCI-H1650 cell growth in a cell viability assay.

[34] = system: NCI-H209; format: functional, cell-based, Homo sapiens; conditions: nci-h209;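 further: growth inhibition of human NCI-H209 cells, measured by a cell viability assay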
Description: SANGER: Inhibition of human NCI-H209 cell growth in a cell viability assay.

[35] = system: NCI-H510A; format: functional, cell-based, Homo sapiens; conditions: nci-h510a;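 further: growth inhibition of NCI-H510A cells, read out with a cell viability assay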
Description: SANGER: Inhibition of human NCI-H510A cell growth in a cell viability assay.

[36] = system: NCI-H82; format: functional, cell-based, Homo sapiens; conditions: nci-h82;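 further: growth inhibition of NCI-H82 cells, measured with a cell viability readout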
Description: SANGER: Inhibition of human NCI-H82 cell growth in a cell viability assay.

[37] = system: NMC-G1; format: functional, cell-based, Homo sapiens; conditions: nmc-g1;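 further: growth inhibition of the NMC-G1 cell line, measured with a cell viability read-out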
Description: SANGER: Inhibition of human NMC-G1 cell growth in a cell viability assay.

[38] = system: RKO; format: functional, cell-based, Homo sapiens; conditions: rko;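 further: growth inhibition of human RKO cells, read out with a cell viability assay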
Description: SANGER: Inhibition of human RKO cell growth in a cell viability assay.

[39] = system: SF-126; format: functional, cell-based, Homo sapiens; conditions: sf-126;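 further: growth inhibition of human SF126 cells, read out with a cell viability assay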
Description: SANGER: Inhibition of human SF126 cell growth in a cell viability assay.

[40] = system: SHP77; format: functional, cell-based, Homo sapiens, SHP-77; conditions: shp-77;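 further: growth inhibition of human SHP-77 cells measured by a cell viability assay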
Description: SANGER: Inhibition of human SHP-77 cell growth in a cell viability assay.

[41] = system: SK-N-DZ; format: functional, cell-based, Homo sapiens; conditions: sk-n-dz;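 further: growth inhibition of the cancer cell line, read out through a viability assay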
Description: SANGER: Inhibition of human SK-N-DZ cell growth in a cell viability assay.

[42] = system: SW 962; format: functional, cell-based, Homo sapiens; conditions: sw 962;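 further: growth inhibition of human SW962 cells, read out by a cell viability assay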
Description: SANGER: Inhibition of human SW962 cell growth in a cell viability assay.

[43] = system: A388; format: functional, cell-based, Homo sapiens; conditions: a388;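 further: growth inhibition of human A388 cells, read out with a cell viability assay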
Description: SANGER: Inhibition of human A388 cell growth in a cell viability assay.

[44] = system: A4-Fuk; format: functional, cell-based, Homo sapiens; conditions: a4-fuk;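 further: growth inhibition of A4-Fuk cells, read out by a cell viability assay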
Description: SANGER: Inhibition of human A4-Fuk cell growth in a cell viability assay.

[45] = system: A498; format: functional, cell-based, Homo sapiens; conditions: a498;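 further: growth inhibition of human A498 cells, read out with a cell viability assay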
Description: SANGER: Inhibition of human A498 cell growth in a cell viability assay.

[46] = system: ALL-PO; format: functional, cell-based, Homo sapiens; conditions: all-po;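 further: growth inhibition of ALL-PO cells, read out by a cell viability assay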
Description: SANGER: Inhibition of human ALL-PO cell growth in a cell viability assay.

[47] = system: AM-38; format: functional, cell-based, Homo sapiens; conditions: am-38;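 further: growth inhibition of AM-38 cells of human origin, read out by a cell viability assay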
Description: SANGER: Inhibition of human AM-38 cell growth in a cell viability assay.

[48] = system: Becker; format: functional, cell-based, Homo sapiens; conditions: becker;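 further: growth inhibition of Becker cells, read out with a cell viability assay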
Description: SANGER: Inhibition of human Becker cell growth in a cell viability assay.

[49] = system: TE-9; format: functional, cell-based, Homo sapiens; conditions: te-9;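 further: cell growth inhibition, measured with a cell viability readout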
Description: SANGER: Inhibition of human TE-9 cell growth in a cell viability assay.

[50] = system: TGW; format: functional, cell-based, Homo sapiens; conditions: tgw;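 further: growth inhibition of human TGW cells, read out with a cell viability assay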
Description: SANGER: Inhibition of human TGW cell growth in a cell viability assay.

Sequence: BLEOMYCIN
- IC50 [1]: 37 µM
- IC50 [2]: 957 µM
- IC50 [3]: 1.01 mM
- IC50 [4]: 5.29 µM
- IC50 [5]: 84.8 µM
- IC50 [6]: 26.7 nM
- IC50 [7]: 378 nM
- IC50 [8]: 1400 nM
- IC50 [9]: 80.5 nM
- IC50 [10]: 292 nM
- IC50 [11]: 6.85 nM
- IC50 [12]: 18.5 µM
- IC50 [13]: 441 nM
- IC50 [14]: 550 nM
- IC50 [15]: 23.1 µM
- IC50 [16]: 32.9 µM
- IC50 [17]: 453 nM
- IC50 [18]: 2290 nM
- IC50 [19]: 35.3 µM
- IC50 [20]: 55.1 nM
- IC50 [21]: 3.4 µM
- IC50 [22]: 54.6 µM
- IC50 [23]: 429 µM
- IC50 [24]: 72.4 µM
- IC50 [25]: 3.71 nM
- IC50 [26]: 6.97 µM
- IC50 [27]: 32.5 nM
- IC50 [28]: 738 nM
- IC50 [29]: 132 nM
- IC50 [30]: 430 µM
- IC50 [31]: 160 µM
- IC50 [32]: 20.3 µM
- IC50 [33]: 499 nM
- IC50 [34]: 34.3 µM
- IC50 [35]: 1090 nM
- IC50 [36]: 225 µM
- IC50 [37]: 11.9 nM
- IC50 [38]: 524 nM
- IC50 [39]: 3.09 µM
- IC50 [40]: 142 µM
- IC50 [41]: 170 µM
- IC50 [42]: 1950 nM
- IC50 [43]: 877 nM
- IC50 [44]: 25.3 µM
- IC50 [45]: 1.02 mM
- IC50 [46]: 986 nM
- IC50 [47]: 4.94 µM
- IC50 [48]: 26.9 µM
- IC50 [49]: 34 µM
- IC50 [50]: 65.8 µM
